For this assay, the system named is degranulation of cells to release β-hexosaminidase. Nature of the assay: β-hexosaminidase release from cells, determined by ELISA (allergy triggering / allergy induction). To be noted: Ctr results of FIG. 1, stimulant alone. The format is cell-based. Here is the method:
[…] Comparisons of the sea grape extract (I) alone group, refined sea grape (I) alone group and the control group.
Calcium ionophore A23187 stimulates degranulation of cells to release the allergic mediator, β-hexosaminidase, the concentration of β-hexosaminidase is determined by enzyme-linked immunosorbent assay (ELISA).
A general note: In an ELISA, binding on a coated surface is turned into a signal by an enzyme label.

As for `CNc1ccc2oc(C[C@H]3O[C@@]4(CC[C@H]3C)O[C@H]([C@H](C)C(=O)c3ccc[nH]3)[C@H](C)C[C@H]4C)nc2c1C(=O)O` [Calcium ionophore A23187], the “release of β-hexosaminidase” value was “induces release”.
